Measurements taken from patent US20050063969A1, “Assay” (priority 2001, published 2005).

Columns and labels:
Assay type in all cases: cell-based
K562-αvβ6 cells = assay: Adhesion of K562-αvβ6 cells to wells coated with GST-LAPβ3 (amino acids 259-269); details: wells coated with 0.5 μg GST-LAPβ3; 2 mM MgCl2; antibodies 1 μg/well; FIG. 3
Method: (§1) K562-αvβ6 cells were allowed to attach to wells coated with 0.5 μg of GST-LAPβ3 (amino-acids 259-269) in the presence of 2 mM MgCl2. Specific blocking antibodies (1 μg/well) and compounds were added as indicated. Each data point represents the mean±SD of duplicate points, and is representative of at least three identical experiments.
(§2) K562-WT (wild-type), K562-αvβ6, K562-αvβ5 and K562-αvβ3 cells were maintained in 1:1 RPMI 1640, Hepes modification (Gibco): Dulbecco's […] (DMEM), Hepes modification (Sigma) supplemented with L-glutamine (Gibco) and 10% fetal calf serum (FCS). In addition K562-αvβ3, K562-αvβ5, and K562-αvβ6 cells were supplemented with geneticin (G418, Gibco) at 1 mg/ml. All transfected cells were generated by transfecting K562 cells with pCDNA-3 constructs containing individual integrin cDNAs, using lipofectamine plus (Gibco BRL).
(§3) All proteins were coated onto Maxisorp 96-well plates (Nunclon) overnight at 4° C. […] For quantitation cells were visualised by staining with 0.1% crystal violet (Sigma) for 10 minutes then lysed in 0.5% Triton X-100 (Sigma) and read optically at 570 nm in a Wallac Victor plate reader.
(§4) The region of LAPβ3 corresponding to amino acids 259 to 269 (^259HGRGDLGRLKK^269) was expressed as a GST fusion protein and tested for the ability to support adhesion of K562-αvβ3, K562-αvβ5, and K562-αvβ6 cells. […]

K562-αvβ3 cells = assay: Adhesion of K562-αvβ3 cells to wells coated with GST-LAPβ3 (amino acids 259-269); details: wells coated with 0.5 μg GST-LAPβ3; 2 mM MgCl2; antibodies 1 μg/well; FIG. 2
Method: as §1, with “K562-αvβ3” for “K562-αvβ6”, “(amino acids” for “(amino-acids”
as §2, §3, §4

K562-αvβ5 cells = assay: Adhesion of K562-αvβ5 cells to wells coated with GST-LAPβ3 (amino acids 259-269); details: wells coated with 0.5 μg GST-LAPβ3; 0.5 mM MnCl2; antibodies 1 μg/well; FIG. 4
Method: as §1, with “K562-αvβ5 cells” for “K562-αvβ6 cells”, “of […] (amino acids” for “of GST-LAPβ3 (amino-acids”, “of 0.5” for “of 2”, “mM MnCl2.” for “mM MgCl2.”
as §2, §3, §4

In the case of “Ac—RTDLDSLRT-NH2 (Ac-RTDLDSLRT-NH2) [GW603365A, described in WO 0037487]”, the “Blocking of K562-αvβ6 cell adhesion to GST-LAPβ3 (amino acids 259-269)” value (K562-αvβ6 cells) is reported as “blocked”.

CN(Cc1nc2ccccc2[nH]1)C(=O)c1ccc2c(c1)CN(C)C(=O)[C@H](CC(=O)O)N2 [SB223245] was tested, and the “Blocking of K562-αvβ3 cell adhesion to GST-LAPβ3 (amino acids 259-269)” value (K562-αvβ3 cells) was “blocked” and the “Inhibition of K562-αvβ5 cell adhesion to GST-LAPβ3 (amino acids 259-269)” value (K562-αvβ5 cells) was “total blockade”.
